The structures appear in SMILES notation. pIC50: −log10 of the molar value.

The target of this test is Wee-1 kinase (Homo sapiens (Human), UniProt P30291). In words: Measurement of Wee-1 kinase activity (ADP-Glo luminescence). It is filed as biochemical. As to conditions: read-out: Wee1 IC50. The procedure, abridged:
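Activated Wee-1 preincubated 30 min at RT with compound in Tris/MgCl2 buffer with BSA and DTT, then reacted 1 h at RT with poly(Lys,Tyr 4:1) (2.0 μg/mL) and 30 μM ATP as added aliquot. ADP formed measured by ADP-Glo luminescence; IC50 by non-linear regression of % inhibition.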

Chain of Wee-1 kinase (P30291 whole entry): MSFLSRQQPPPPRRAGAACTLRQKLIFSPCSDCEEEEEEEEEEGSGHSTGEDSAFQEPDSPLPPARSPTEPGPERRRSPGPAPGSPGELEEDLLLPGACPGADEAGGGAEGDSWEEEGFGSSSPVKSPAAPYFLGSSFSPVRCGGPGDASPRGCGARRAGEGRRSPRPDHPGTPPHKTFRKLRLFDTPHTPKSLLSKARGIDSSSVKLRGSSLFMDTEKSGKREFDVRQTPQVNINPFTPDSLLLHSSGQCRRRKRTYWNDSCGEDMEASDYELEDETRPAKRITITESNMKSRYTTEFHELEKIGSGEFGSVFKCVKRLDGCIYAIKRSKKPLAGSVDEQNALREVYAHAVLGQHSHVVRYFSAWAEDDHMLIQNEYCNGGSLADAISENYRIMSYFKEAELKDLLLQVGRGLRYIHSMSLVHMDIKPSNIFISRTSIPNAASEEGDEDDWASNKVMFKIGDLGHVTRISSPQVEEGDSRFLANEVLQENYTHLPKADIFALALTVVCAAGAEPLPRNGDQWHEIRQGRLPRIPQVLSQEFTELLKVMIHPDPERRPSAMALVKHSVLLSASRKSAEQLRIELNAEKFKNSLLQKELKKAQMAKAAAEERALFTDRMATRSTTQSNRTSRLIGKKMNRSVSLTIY

Regarding `C=CCn1c(=O)c2cnc(Nc3ccc(F)nc3)nc2n1-c1cccc(N=S(C)(C)=O)n1` [Example 70, 1-(6-{[Dimethyl(oxo)-λ^6-sulfanylidene]amino}pyridin-2-yl)-6-[(6-fluoropyridin-3-yl)amino]-2-(prop-2-en-1-yl)-1H,2H,3H-pyrazolo[3,4-d]pyrimidin-3-one], the pIC50 was 8.60.
Then `CC(C)n1c(=O)c2cnc(Nc3ccc(C#N)cc3)nc2n1-c1cccc(N=S(C)(C)=O)n1` [Example 71, 4-{[1-(6-{[Dimethyl(oxo)-λ^6-sulfanylidene]amino}pyridin-2-yl)-3-oxo-2-(propan-2-yl)-1H,2H,3H-pyrazolo[3,4-d]pyrimidin-6-yl]amino}benzonitrile], with 7.59; and `CC(C)n1c(=O)c2cnc(Nc3ccc(C(F)(F)F)cc3)nc2n1-c1cccc(N=S(C)(C)=O)n1` [Example 72, 1-(6-{[Dimethyl(oxo)-λ^6-sulfanylidene]amino}pyridin-2-yl)-2-(propan-2-yl)-6-{[4-(trifluoromethyl)phenyl]amino}-1H,2H,3H-pyrazolo[3,4-d]pyrimidin-3-one], with 7.72; and `CC(C)n1c(=O)c2cnc(Nc3cccc(C(F)(F)F)c3)nc2n1-c1cccc(N=S(C)(C)=O)n1` [Example 73, 1-(6-{[Dimethyl(oxo)-λ^6-sulfanylidene]amino}pyridin-2-yl)-2-(propan-2-yl)-6-{[3-(trifluoromethyl)phenyl]amino}-1H,2H,3H-pyrazolo[3,4-d]pyrimidin-3-one], with 7.18.
In the case of `C=CCn1c(=O)c2cnc(Nc3ccc(N4CCO[C@H](COC)C4)cc3)nc2n1-c1cncc(N=S(C)(C)=O)n1` [Example 74, 1-(6-{[Dimethyl(oxo)-λ^6-sulfanylidene]amino}pyrazin-2-yl)-6-({4-[(2S)-2-(methoxymethyl)morpholin-4-yl]phenyl}amino)-2-(prop-2-en-1-yl)-1H,2H,3H-pyrazolo[3,4-d]pyrimidin-3-one] it was 9.52.
Then `C=CCn1c(=O)c2cnc(Nc3ccc(F)cc3)nc2n1-c1cncc(N=S(C)(C)=O)n1` [Example 75, 1-(6-{[Dimethyl(oxo)-λ^6-sulfanylidene]amino}pyrazin-2-yl)-6-[(4-fluorophenyl)amino]-2-(prop-2-en-1-yl)-1H,2H,3H-pyrazolo[3,4-d]pyrimidin-3-one], with 8.85.
With `C=CCn1c(=O)c2cnc(Nc3cccnc3)nc2n1-c1cccc(N=S(C)(C)=O)n1` [Example 77, 1-(6-{[Dimethyl(oxo)-λ^6-sulfanylidene]amino}pyridin-2-yl)-2-(prop-2-en-1-yl)-6-[(pyridin-3-yl)amino]-1H,2H,3H-pyrazolo[3,4-d]pyrimidin-3-one], the negative-log IC50 (pIC50) was 6.00.
Take `C=CCn1c(=O)c2cnc(Nc3cnn(C)c3)nc2n1-c1cccc(N=S2(=O)CCCC2)n1` [Example 78, 6-[(1-Methyl-1H-pyrazol-4-yl)amino]-1-{6-[(1-oxo-1λ^6-thiolan-1-ylidene)amino]pyridin-2-yl}-2-(prop-2-en-1-yl)-1H,2H,3H-pyrazolo[3,4-d]pyrimidin-3-one]: the pIC50 was 8.60.
In the case of `C=CCn1c(=O)c2cnc(Nc3cnn(C)c3)nc2n1-c1cccc(N=[S@@](C)(=O)c2ccccc2)n1` [Example 79, 1-(6-{[(S)-Methyl(oxo)phenyl-λ^6-sulfanylidene]amino}pyridin-2-yl)-6-[(1-methyl-1H-pyrazol-4-yl)amino]-2-(prop-2-en-1-yl)-1H,2H,3H-pyrazolo[3,4-d]pyrimidin-3-one] it was 7.34.
In the case of `C=CCn1c(=O)c2cnc(Nc3cnn(C(C)C)c3)nc2n1-c1cccc(N=S(C)(C)=O)n1` [Example 80, 1-(6-{[Dimethyl(oxo)-λ^6-sulfanylidene]amino}pyridin-2-yl)-2-(prop-2-en-1-yl)-6-{[1-(propan-2-yl)-1H-pyrazol-4-yl]amino}-1H,2H,3H-pyrazolo[3,4-d]pyrimidin-3-one] it was 9.52; in that of `C=CCn1c(=O)c2cnc(Nc3ccc(C(F)(F)F)nc3)nc2n1-c1cccc(N=S(C)(C)=O)n1` [Example 81, 1-(6-{[Dimethyl(oxo)-λ^6-sulfanylidene]amino}pyridin-2-yl)-2-(prop-2-en-1-yl)-6-{[6-(trifluoromethyl)pyridin-3-yl]amino}-1H,2H,3H-pyrazolo[3,4-d]pyrimidin-3-one], 8.89.
Then `C=CCn1c(=O)c2cnc(Nc3ccc(F)c(OC)c3)nc2n1-c1cccc(N=S(C)(C)=O)n1` [Example 82, 1-(6-{[Dimethyl(oxo)-λ^6-sulfanylidene]amino}pyridin-2-yl)-6-[(4-fluoro-3-methoxyphenyl)amino]-2-(prop-2-en-1-yl)-1H,2H,3H-pyrazolo[3,4-d]pyrimidin-3-one], with 9.40; and `C=CCn1c(=O)c2cnc(Nc3cc(F)cc(F)c3)nc2n1-c1cccc(N=S(C)(C)=O)n1` [Example 84, 6-[(3,5-Difluorophenyl)amino]-1-(6-{[dimethyl(oxo)-λ^6-sulfanylidene]amino}pyridin-2-yl)-2-(prop-2-en-1-yl)-1H,2H,3H-pyrazolo[3,4-d]pyrimidin-3-one], with 9.00; and `C=CCn1c(=O)c2cnc(Nc3cnn(CC(F)(F)F)c3)nc2n1-c1cccc(N=S(C)(C)=O)n1` [Example 85, 1-(6-{[Dimethyl(oxo)-λ^6-sulfanylidene]amino}pyridin-2-yl)-2-(prop-2-en-1-yl)-6-{[1-(2,2,2-trifluoroethyl)-1H-pyrazol-4-yl]amino}-1H,2H,3H-pyrazolo[3,4-d]pyrimidin-3-one], with 9.22.
`C=CCn1c(=O)c2cnc(Nc3ccc(C4CCN(C5CCC5)CC4)c(C)c3)nc2n1-c1cccc(N=S(C)(C)=O)n1` [Example 88, 6-{[4-(1-Cyclobutylpiperidin-4-yl)-3-methylphenyl]amino}-1-(6-{[dimethyl(oxo)-λ^6-sulfanylidene]amino}pyridin-2-yl)-2-(prop-2-en-1-yl)-1H,2H,3H-pyrazolo[3,4-d]pyrimidin-3-one]: the negative-log IC50 (pIC50) is 9.40.
In the case of `C=CCn1c(=O)c2cnc(Nc3ccc(N(C)CCOC)cc3)nc2n1-c1cccc(N=S(C)(C)=O)n1` [Example 89, 1-(6-{[Dimethyl(oxo)-λ^6-sulfanylidene]amino}pyridin-2-yl)-6-({4-[(2-methoxyethyl)(methyl)amino]phenyl}amino)-2-(prop-2-en-1-yl)-1H,2H,3H-pyrazolo[3,4-d]pyrimidin-3-one] it was 9.70; in that of `C=CCn1c(=O)c2cnc(Nc3ccc(N4CCC4)cc3)nc2n1-c1cccc(N=S(C)(C)=O)n1` [Example 90, 6-{[4-(Azetidin-1-yl)phenyl]amino}-1-(6-{[dimethyl(oxo)-λ^6-sulfanylidene]amino}pyridin-2-yl)-2-(prop-2-en-1-yl)-1H,2H,3H-pyrazolo[3,4-d]pyrimidin-3-one], 9.70.
`C=CCn1c(=O)c2cnc(Nc3ccc(N4CCOCC4)cc3)nc2n1-c1cccc(CN=S(C)(C)=O)n1` [Example 91, 1-[6-({[Dimethyl(oxo)-λ^6-sulfanylidene]amino}methyl)pyridin-2-yl]-6-{[4-(morpholin-4-yl)phenyl]amino}-2-(prop-2-en-1-yl)-1H,2H,3H-pyrazolo[3,4-d]pyrimidin-3-one]: the pIC50 is 7.66.
In the case of `CS(C)(=O)=Nc1cccc(-n2c3nc(Nc4ccc(N5CCOCC5)cc4)ncc3c(=O)n2CC2CC2)n1` [Example 92, 2-(Cyclopropylmethyl)-1-(6-{[dimethyl(oxo)-λ^6-sulfanylidene]amino}pyridin-2-yl)-6-{[4-(morpholin-4-yl)phenyl]amino}-1H,2H,3H-pyrazolo[3,4-d]pyrimidin-3-one] it was 8.06.
Take `C#CCn1c(=O)c2cnc(Nc3cnn(C(C)C)c3)nc2n1-c1cccc(N=S(C)(C)=O)n1` [Example 94, 1-(6-((Dimethyl(oxo)-λ^6-sulfaneylidene)amino)pyridin-2-yl)-6-((1-isopropyl-1H-pyrazol-4-yl)amino)-2-(prop-2-yn-1-yl)-1,2-dihydro-3H-pyrazolo[3,4-d]pyrimidin-3-one]: the pIC50 is 8.92.
Turning to `C=CCn1cc(Nc2ncc3c(=O)n(CC=C)n(-c4cccc(N=S(C)(C)=O)n4)c3n2)cn1` [Example 95, 2-Allyl-6-((1-allyl-1H-pyrazol-4-yl)amino)-1-(6-((dimethyl(oxo)-λ^6-sulfaneylidene)amino)pyridin-2-yl)-1,2-dihydro-3H-pyrazolo[3,4-d]pyrimidin-3-one], the pIC50 is 9.10.
In the case of `C=CCn1c(=O)c2cnc(Nc3cnn(C4CCCCC4)c3)nc2n1-c1cccc(N=S(C)(C)=O)n1` [Example 96, 2-Allyl-6-((1-cyclohexyl-1H-pyrazol-4-yl)amino)-1-(6-((dimethyl(oxo)-λ^6-sulfaneylidene)amino)pyridin-2-yl)-1,2-dihydro-3H-pyrazolo[3,4-d]pyrimidin-3-one] it was 9.40.

The record behind these values is US10766902B2, “Wee-1 inhibiting pyrazolopyrimidinone compounds” (ALMAC DISCOVERY LIMITED, priority 2016, dated 2020).
